Test results as given in PubChem BioAssay AID248 (DTP/NCI, 2004).
Several values for one entry are separate records, joined by “and”; a condition that tells them apart may be missing. Equal values may be shown once. Toxic doses and inconclusive results are not listed. Cut-off read from the data, not from the text of the source: active = T/C of 150% or more; inactive = T/C below 125%.

Tested on: L1210 leukemia ip in BDF1 mice, survival T/C
Test: NCI In Vivo Anticancer Drug Screen. Data for tumor model L1210 Leukemia (intraperitoneal) in B6D2F1 (BDF1) mice
Settings: endpoint: mean survival time, higher = longer survival
Method in brief: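 Mice bearing the transplanted tumor received compound or vehicle. Survival of the treated group was divided by that of the vehicle-treated control group to give the ratio.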

[1] = dose: 100.0 mg/kg/injection, schedule: Q01DX001 (ip), vehicle: saline
[2] = dose: 200.0 mg/kg/injection, schedule: Q01DX001 (ip), vehicle: saline
[3] = dose: 100.0 mg/kg/injection, schedule: Q04DX003 (ip), vehicle: Klucel (hydroxypropylcellulose) (HPC)
[4] = dose: 200.0 mg/kg/injection, schedule: Q04DX003 (ip), vehicle: Klucel (hydroxypropylcellulose) (HPC)
[5] = dose: 400.0 mg/kg/injection, schedule: Q04DX003 (ip), vehicle: Klucel (hydroxypropylcellulose) (HPC)
[6] = dose: 100.0 mg/kg/injection, schedule: Q04DX003 (ip), vehicle: saline with Tween-80
[7] = dose: 200.0 mg/kg/injection, schedule: Q04DX003 (ip), vehicle: saline with Tween-80
[8] = dose: 400.0 mg/kg/injection, schedule: Q04DX003 (ip), vehicle: saline with Tween-80
[9] = dose: 100.0 mg/kg/injection, schedule: Q01DX009 (ip), vehicle: Klucel (hydroxypropylcellulose) (HPC)
[10] = dose: 200.0 mg/kg/injection, schedule: Q01DX009 (ip), vehicle: Klucel (hydroxypropylcellulose) (HPC)
[11] = dose: 400.0 mg/kg/injection, schedule: Q01DX009 (ip), vehicle: Klucel (hydroxypropylcellulose) (HPC)
[12] = dose: 100.0 mg/kg/injection, schedule: Q01DX009 (ip), vehicle: saline with Tween-80
[13] = dose: 200.0 mg/kg/injection, schedule: Q01DX009 (ip), vehicle: saline with Tween-80
[14] = dose: 400.0 mg/kg/injection, schedule: Q01DX009 (ip), vehicle: saline with Tween-80

Measured: T/C

COc1ccc(OCCC(=O)O)cc1
inactive: [1] 90 % of control | [2] 93 % of control

CCCCCCCCCCCCCCCC(S(=O)(=O)CC)S(=O)(=O)CC
inactive: [3] 93 % of control | [4] 97 % of control | [5] 87 % of control

CCCCCCCCCCCCCCCCOc1ccc(C(=O)Nc2ccc(S(=O)(=O)Nc3cccc4ccccc34)cc2)cc1S(=O)(=O)F
inactive: [3] 102 % of control | [4] 100 % of control | [5] 93 % of control

C=CCN(CC=C)c1nc(-c2ccccc2)nc(-c2ccccc2)n1
inactive: dose: 25.6 mg/kg/injection, schedule: Q04DX002 (ip), vehicle: saline with Tween-80 93 % of control | dose: 64.0 mg/kg/injection, schedule: Q04DX002 (ip), vehicle: saline with Tween-80 93 % of control | [6] 92 % of control | dose: 160.0 mg/kg/injection, schedule: Q04DX002 (ip), vehicle: saline with Tween-80 93 % of control | [7] 92 % of control | dose: 400.0 mg/kg/injection, schedule: Q04DX002 (ip), vehicle: saline with Tween-80 89 % of control | [8] 92 % of control

COc1ccc(OC)c(-c2nnc(Nc3ccc(S(=O)(=O)N4CCCCC4)cc3)s2)c1
inactive: [9] 94 % of control | [10] 91 % of control | [11] 91 % of control

O=C(N/N=C\c1cccc([N+](=O)[O-])c1)N/N=C/c1cccc([N+](=O)[O-])c1
inactive: dose: 6.25 mg/kg/injection, schedule: Q04DX003 (ip), vehicle: saline with Tween-80 92 % of control | dose: 12.5 mg/kg/injection, schedule: Q04DX003 (ip), vehicle: saline with Tween-80 97 % of control | dose: 25.0 mg/kg/injection, schedule: Q04DX003 (ip), vehicle: saline with Tween-80 87 % of control

COc1cc2c(cc1C(C)C)CCC1C(C)(C#N)CCCC21C (centres undefined)
inactive: [12] 96 % of control | [6] 100 % of control | [13] 89 % of control | [7] 96 % of control | [14] 92 % of control | [8] 100 % of control

NC(N)=N/N=C(\C=C\c1ccccc1)C(=O)O
inactive: dose: 240.0 mg/kg/injection, schedule: Q01DX Z (ip), vehicle: methylcellulose (MC) 102 % of control | dose: 360.0 mg/kg/injection, schedule: Q01DX Z (ip), vehicle: methylcellulose (MC) 100 % of control | dose: 480.0 mg/kg/injection, schedule: Q01DX Z (ip), vehicle: methylcellulose (MC) 96 % of control

NC(CSC(c1ccccc1)c1ccccc1)C(=O)O (centres undefined)
inactive: dose: 10.0 mg/kg/injection, schedule: Q01DX015 (ip), vehicle: saline 97 % of control | dose: 20.0 mg/kg/injection, schedule: Q01DX015 (ip), vehicle: saline 91 % of control | dose: 40.0 mg/kg/injection, schedule: Q01DX015 (ip), vehicle: saline 95 % of control | dose: 50.0 mg/kg/injection, schedule: Q01DX001 (ip), vehicle: carboxymethylcellulose (CMC) 98 % of control | dose: 79.0 mg/kg/injection, schedule: Q01DX015 (ip), vehicle: saline 92 % of control | dose: 100.0 mg/kg/injection, schedule: Q01DX001 (ip), vehicle: carboxymethylcellulose (CMC) 101 % of control | [1] 101 % of control | dose: 158.0 mg/kg/injection, schedule: Q01DX015 (ip), vehicle: saline 95 % of control | dose: 200.0 mg/kg/injection, schedule: Q01DX001 (ip), vehicle: carboxymethylcellulose (CMC) 87 % of control | [2] 100 % of control | dose: 316.0 mg/kg/injection, schedule: Q01DX015 (ip), vehicle: saline 98 % of control | dose: 400.0 mg/kg/injection, schedule: Q01DX001 (ip), vehicle: carboxymethylcellulose (CMC) 87 % of control | dose: 400.0 mg/kg/injection, schedule: Q01DX001 (ip), vehicle: saline 101 % of control | dose: 632.0 mg/kg/injection, schedule: Q01DX015 (ip), vehicle: saline 97 % of control

CC1=C(C)C2(C)C(C)(O)C(C)(O)C12C (centres undefined)
inactive: dose: 75.0 mg/kg/injection, schedule: Q01DX001 (ip), vehicle: acetone 97 % of control | dose: 75.0 mg/kg/injection, schedule: Q04DX003 (ip), vehicle: saline with Tween-80 87 % of control | dose: 150.0 mg/kg/injection, schedule: Q01DX001 (ip), vehicle: acetone 102 % of control | dose: 300.0 mg/kg/injection, schedule: Q01DX001 (ip), vehicle: acetone 102 % of control

C=CCOCC(O)CN(CC)c1ccccc1 (centres undefined)
inactive: dose: 50.0 mg/kg/injection, schedule: Q01DX009 (ip), vehicle: Klucel (hydroxypropylcellulose) (HPC) 95 % of control | [9] 96 % of control | [3] 100 % of control | [10] 94 % of control and 102 % of control | [4] 102 % of control | [11] 90 % of control | [5] 100 % of control

Cc1cc(C)c(N(C)C(=O)CCC(=O)O)c(C)c1Br
inactive: dose: 100.0 mg/kg/injection, schedule: Q01DX001 (ip), vehicle: Klucel (hydroxypropylcellulose) (HPC) 97 % of control | [9] 93 % of control | dose: 200.0 mg/kg/injection, schedule: Q01DX001 (ip), vehicle: Klucel (hydroxypropylcellulose) (HPC) 97 % of control | [10] 93 % of control | dose: 400.0 mg/kg/injection, schedule: Q01DX001 (ip), vehicle: Klucel (hydroxypropylcellulose) (HPC) 104 % of control

Cc1cccc(Nc2cc(N)nc(N)n2)c1
inactive: dose: 50.0 mg/kg/injection, schedule: Q01DX Z (ip), vehicle: methylcellulose (MC) 96 % of control

O=S1C=C(c2ccc(Cl)cc2)OC1 (centres undefined)
inactive: dose: 12.0 mg/kg/injection, schedule: Q01DX001 (ip), vehicle: saline 102 % of control | dose: 25.0 mg/kg/injection, schedule: Q01DX001 (ip), vehicle: saline 107 % of control | dose: 50.0 mg/kg/injection, schedule: Q01DX001 (ip), vehicle: saline 107 % of control

O=C(OC1CCCCC1c1ccccc1)c1cc([N+](=O)[O-])cc([N+](=O)[O-])c1 (centres undefined)
inactive: dose: 100.0 mg/kg/injection, schedule: Q01DX001 (ip), vehicle: other 89 % of control | dose: 200.0 mg/kg/injection, schedule: Q01DX001 (ip), vehicle: other 89 % of control | dose: 400.0 mg/kg/injection, schedule: Q01DX001 (ip), vehicle: other 89 % of control

CC1(C)OC2C(CO)OC(n3cnc4c(=O)[nH]cnc43)C2O1 (centres undefined)
inactive: dose: 75.0 mg/kg/injection, schedule: Q01DX001 (ip), vehicle: saline 102 % of control | dose: 150.0 mg/kg/injection, schedule: Q01DX001 (ip), vehicle: saline 92 % of control

CC(O)CCc1ccccc1 (centres undefined)
inactive: [12] 100 % of control | [13] 89 % of control | [14] 88 % of control

O=C(Nc1ccc(Br)cc1)Oc1ccccc1C(=O)OCc1ccccc1
inactive: dose: 100.0 mg/kg/injection, schedule: Q04DX002 (ip), vehicle: Klucel (hydroxypropylcellulose) (HPC) 97 % of control | dose: 200.0 mg/kg/injection, schedule: Q04DX002 (ip), vehicle: Klucel (hydroxypropylcellulose) (HPC) 87 % of control
